# How the values were obtained:
# [1] = tested on: Escherichia coli; assay: Binding affinity at Escherichia coli double stranded DNA by competition dialysis assay
# [2] = tested on: DNA; assay: Binding affinity at calf thymus double stranded DNA by competition dialysis assay; format: nucleic-acid assay; conditions: Bos taurus
# [3] = Binding affinity at poly (dAdT). poly (dAdT) dsDNA polynucleotide by competition dialysis assay
# [4] = Binding affinity at poly (dGdC). poly (dGdC) dsDNA polynucleotide by competition dialysis assay
# [5] = Binding affinity at poly(dA).poly(dT) dsDNA polynucleotide by competition dialysis assay
# [6] = Binding affinity at polyA.Poly U dsRNA polynucleotide by competition dialysis assay
# [7] = tested on: Triticum aestivum; assay: Binding affinity at wheat germ single stranded RNA by competition assay
# [8] = Binding affinity at polyA ssRNA by competition dialysis assay
SMILES,Kapp [1],Kapp [2],Kapp [3],Kapp [4],Kapp [5],Kapp [6],Kapp [7],Kapp [8]
FC(F)(F)C12OC(C(F)(F)F)(C3C4CC(C5CN(CCNc6c7ccccc7nc7ccccc67)CC54)C31)C1C3CC(C4CN(CCNc5c6ccccc6nc6ccccc56)CC43)C12 (stereo unspecified),19.1 10^3/M,20.3 10^3/M,29.5 10^3/M,27.6 10^3/M,19.6 10^3/M,0.53 10^3/M,0.53 10^3/M,1.73 10^3/M
COC(=O)C12OC(C(=O)OC)(C3C4CC(C5C(=O)N(CCNC(=O)c6cccc7cc8ccccc8nc67)C(=O)C45)C31)C1C3CC(C4C(=O)N(CCNC(=O)c5cccc6cc7ccccc7nc56)C(=O)C34)C12 (stereo unspecified),6.8 10^3/M,16 10^3/M,13.9 10^3/M,9.6 10^3/M,6.8 10^3/M,8.27 10^3/M,0.53 10^3/M,0.53 10^3/M
COC(=O)C12OC(C(=O)OC)(C3C4CC(C5C(=O)N(CCNc6c7ccccc7nc7ccccc67)C(=O)C45)C31)C1C3CC(C4C(=O)N(CCNc5c6ccccc6nc6ccccc56)C(=O)C34)C12 (stereo unspecified),32.8 10^3/M,30.4 10^3/M,38.9 10^3/M,28.4 10^3/M,16.4 10^3/M,19.2 10^3/M,8.8 10^3/M,2.93 10^3/M
COC(=O)C12OC(C(=O)OC)(C3C4CC(C5C(=O)N(CCNc6c7ccccc7nc7ccccc67)C(=O)C45)C31)C1C3CC(C12)C1C3C2(C(=O)OC)OC1(C(=O)OC)C1C3CC(C4C(=O)N(CCNc5c6ccccc6nc6ccccc56)C(=O)C34)C12 (stereo unspecified),25.7 10^3/M,30.4 10^3/M,31.7 10^3/M,26.4 10^3/M,23.7 10^3/M,25.5 10^3/M,5.33 10^3/M,1.47 10^3/M
COC(=O)C12OC(C(=O)OC)(C3C4CC(C5C(=O)N(CCNC(=O)c6cccc7cc8ccccc8nc67)C(=O)C45)C31)C1C3CC(C4C(=O)N(CCNc5c6ccccc6nc6ccccc56)C(=O)C34)C12 (stereo unspecified),12.9 10^3/M,23.1 10^3/M,29.5 10^3/M,15.6 10^3/M,0.8 10^3/M,0.27 10^3/M,0.27 10^3/M,0.27 10^3/M

# Now from value to compound:
Kapp [1],Kapp [2],Kapp [3],Kapp [4],Kapp [5],Kapp [6],Kapp [7],Kapp [8],SMILES
3.47 10^3/M,6.27 10^3/M,12.1 10^3/M,3.47 10^3/M,0.53 10^3/M,1.47 10^3/M,2.4 10^3/M,0 10^3/M,O=C1C2C3C=CC(C3)C2C(=O)N1CCNc1c2ccccc2nc2ccccc12 (stereo unspecified)
14.9 10^3/M,8.13 10^3/M,14.4 10^3/M,8.13 10^3/M,3.87 10^3/M,0.8 10^3/M,7.6 10^3/M,0.8 10^3/M,COC(=O)C12OC(C(=O)OC)(C3C4CC(C5C(=O)N(CCNc6c7ccccc7nc7ccccc67)C(=O)C45)C31)C1C3CC(C4C(=O)N(CCN5C(=O)c6cccc7cccc(c67)C5=O)C(=O)C34)C12 (stereo unspecified)

# Source: ChEMBL document CHEMBL1139855, “Molecular recognition of DNA by rigid [N]-polynorbornane-derived bifunctional intercalators: synthesis and evaluation of their binding properties” (J Med Chem, 2007)
